Laboratory results taken from ChEMBL document CHEMBL3885881, “DrugMatrix”.

Species: Rattus norvegicus
Test: DrugMatrix - Regimen: Daily Repeat
Assay type: toxicity, organism-based, Sprague-Dawley
Set-up: regimen Daily Repeat, gender Male, age 6-8 weeks
Settings: in vivo, po, route oral GAVAGE, vehicle 100 % WATER; for ABSOLUTE BASOPHIL / ABSOLUTE EOSINOPHIL / ABSOLUTE LYMPHOCYTE / ABSOLUTE MONOCYTE / ABSOLUTE SEGMENTED NEUTROPHIL / BASOPHIL / EOSINOPHIL / ERYTHROCYTE COUNT / HEMATOCRIT / HEMOGLOBIN / LEUKOCYTE COUNT / LYMPHOCYTE / MEAN CORPUSCULAR HEMOGLOBIN / MEAN CORPUSCULAR HEMOGLOBIN CONCENTRATION / MEAN CORPUSCULAR VOLUME / MONOCYTE / NEUTROPHIL / NUCLEATED RED BLOOD CELLS / PLATELET COUNT: tissue Blood; for ALANINE AMINOTRANSFERASE / ALBUMIN / ALKALINE PHOSPHATASE / ASPARTATE AMINOTRANSFERASE / BLOOD UREA NITROGEN / CARBON DIOXIDE / CHLORIDE / CHOLESTEROL / CREATINE PHOSPHOKINASE / CREATININE / GLUCOSE / LACTATE DEHYDROGENASE / LIPASE / PHOSPHORUS / POTASSIUM / SODIUM / TOTAL BILIRUBIN / TOTAL PROTEIN / URIC ACID: tissue Plasma
[1] = 17 mg/kg, 72 h, dose level High, time 3 day
[2] = 17 mg/kg, 120 h, dose level High, time 5 day
[3] = […], 72 h, dose 1.7 mg/Kg, dose level Low, time 3 day
[4] = […], 120 h, dose 1.7 mg/Kg, dose level Low, time 5 day

COP(=O)(OC)OC=C(Cl)Cl [DICHLORVOS]
ABSOLUTE BASOPHIL [1]: 0 CELLS/uL
ABSOLUTE EOSINOPHIL [1]: 43.33 CELLS/uL
ABSOLUTE LYMPHOCYTE [1]: 12252 CELLS/uL
ABSOLUTE MONOCYTE [1]: 527.33 CELLS/uL
ABSOLUTE SEGMENTED NEUTROPHIL [1]: 1577.33 CELLS/uL
BASOPHIL [1]: 0%
EOSINOPHIL [1]: 0.33%
ERYTHROCYTE COUNT [1]: 5.59 x10E6/uL
HEMATOCRIT [1]: 34.9%
HEMOGLOBIN [1]: 13.5 G/DL
LEUKOCYTE COUNT [1]: 14.4 x10E3/uL
LYMPHOCYTE [1]: 85%
MEAN CORPUSCULAR HEMOGLOBIN [1]: 24.17 pg
MEAN CORPUSCULAR HEMOGLOBIN CONCENTRATION [1]: 38.7 G/DL
MEAN CORPUSCULAR VOLUME [1]: 62.53 fL
MONOCYTE [1]: 3.67%
NEUTROPHIL [1]: 11%
NUCLEATED RED BLOOD CELLS [1]: 0 /100WBC
PLATELET COUNT [1]: 1225.67 x10E3/uL
ALANINE AMINOTRANSFERASE [1]: 49.67 u/L
ALBUMIN [1]: 4 G/DL
ALKALINE PHOSPHATASE [1]: 370.33 u/L
ASPARTATE AMINOTRANSFERASE [1]: 92 u/L
BLOOD UREA NITROGEN [1]: 17.67 mg/dL
CARBON DIOXIDE [1]: 27 mmol/L
CHLORIDE [1]: 104.33 MEQ/L
CHOLESTEROL [1]: 63.67 mg/dL
CREATINE PHOSPHOKINASE [1]: 448 u/L
CREATININE [1]: 0.2 mg/dL
GLUCOSE [1]: 141 mg/dL
LACTATE DEHYDROGENASE [1]: 444.33 u/L
LIPASE [1]: 8.33 u/L
PHOSPHORUS [1]: 12.67 mg/dL
POTASSIUM [1]: 6.46 MEQ/L
SODIUM [1]: 145.9 MEQ/L
TOTAL BILIRUBIN [1]: 0.2 mg/dL
TOTAL PROTEIN [1]: 5.77 G/DL
URIC ACID [1]: 1.23 mg/dL
ABSOLUTE BASOPHIL [2]: 0 CELLS/uL
ABSOLUTE EOSINOPHIL [2]: 213.33 CELLS/uL
ABSOLUTE LYMPHOCYTE [2]: 13980 CELLS/uL
ABSOLUTE MONOCYTE [2]: 329.33 CELLS/uL
ABSOLUTE SEGMENTED NEUTROPHIL [2]: 1944 CELLS/uL
BASOPHIL [2]: 0%
EOSINOPHIL [2]: 1.33%
ERYTHROCYTE COUNT [2]: 5.69 x10E6/uL
HEMATOCRIT [2]: 34.17%
HEMOGLOBIN [2]: 13.03 G/DL
LEUKOCYTE COUNT [2]: 16.47 x10E3/uL
LYMPHOCYTE [2]: 85%
MEAN CORPUSCULAR HEMOGLOBIN [2]: 22.9 pg
MEAN CORPUSCULAR HEMOGLOBIN CONCENTRATION [2]: 38.13 G/DL
MEAN CORPUSCULAR VOLUME [2]: 60.07 fL
MONOCYTE [2]: 2%
NEUTROPHIL [2]: 11.67%
NUCLEATED RED BLOOD CELLS [2]: 0 /100WBC
PLATELET COUNT [2]: 1272.67 x10E3/uL
ALANINE AMINOTRANSFERASE [2]: 46 u/L
ALBUMIN [2]: 4.23 G/DL
ALKALINE PHOSPHATASE [2]: 289.33 u/L
ASPARTATE AMINOTRANSFERASE [2]: 91 u/L
BLOOD UREA NITROGEN [2]: 19.33 mg/dL
CARBON DIOXIDE [2]: 24.67 mmol/L
CHLORIDE [2]: 105.33 MEQ/L
CHOLESTEROL [2]: 60.33 mg/dL
CREATINE PHOSPHOKINASE [2]: 609.33 u/L
CREATININE [2]: 0.22 mg/dL
GLUCOSE [2]: 167.33 mg/dL
LACTATE DEHYDROGENASE [2]: 458 u/L
LIPASE [2]: 8.33 u/L
PHOSPHORUS [2]: 12.8 mg/dL
POTASSIUM [2]: 5.47 MEQ/L
SODIUM [2]: 146.93 MEQ/L
TOTAL BILIRUBIN [2]: 0.13 mg/dL
TOTAL PROTEIN [2]: 5.8 G/DL
URIC ACID [2]: 1.37 mg/dL
ABSOLUTE BASOPHIL [3]: 0 CELLS/uL
ABSOLUTE EOSINOPHIL [3]: 0 CELLS/uL
ABSOLUTE LYMPHOCYTE [3]: 12487 CELLS/uL
ABSOLUTE MONOCYTE [3]: 388 CELLS/uL
ABSOLUTE SEGMENTED NEUTROPHIL [3]: 1291.67 CELLS/uL
BASOPHIL [3]: 0%
EOSINOPHIL [3]: 0%
ERYTHROCYTE COUNT [3]: 6.29 x10E6/uL
HEMATOCRIT [3]: 38.27%
HEMOGLOBIN [3]: 14.27 G/DL
LEUKOCYTE COUNT [3]: 14.17 x10E3/uL
LYMPHOCYTE [3]: 88.33%
MEAN CORPUSCULAR HEMOGLOBIN [3]: 22.67 pg
MEAN CORPUSCULAR HEMOGLOBIN CONCENTRATION [3]: 37.3 G/DL
MEAN CORPUSCULAR VOLUME [3]: 60.77 fL
MONOCYTE [3]: 2.67%
NEUTROPHIL [3]: 9%
NUCLEATED RED BLOOD CELLS [3]: 0 /100WBC
PLATELET COUNT [3]: 1299 x10E3/uL
ALANINE AMINOTRANSFERASE [3]: 50 u/L
ALBUMIN [3]: 4.4 G/DL
ALKALINE PHOSPHATASE [3]: 363 u/L
ASPARTATE AMINOTRANSFERASE [3]: 81.33 u/L
BLOOD UREA NITROGEN [3]: 14.67 mg/dL
CARBON DIOXIDE [3]: 23 mmol/L
CHLORIDE [3]: 104 MEQ/L
CHOLESTEROL [3]: 85.67 mg/dL
CREATINE PHOSPHOKINASE [3]: 178 u/L
CREATININE [3]: 0.19 mg/dL
GLUCOSE [3]: 178.67 mg/dL
LACTATE DEHYDROGENASE [3]: 95.67 u/L
LIPASE [3]: 9.33 u/L
PHOSPHORUS [3]: 13.57 mg/dL
POTASSIUM [3]: 6.76 MEQ/L
SODIUM [3]: 146.43 MEQ/L
TOTAL BILIRUBIN [3]: 0.23 mg/dL
TOTAL PROTEIN [3]: 6.37 G/DL
URIC ACID [3]: 3.2 mg/dL
ABSOLUTE BASOPHIL [4]: 0 CELLS/uL
ABSOLUTE EOSINOPHIL [4]: 131 CELLS/uL
ABSOLUTE LYMPHOCYTE [4]: 11771.67 CELLS/uL
ABSOLUTE MONOCYTE [4]: 175 CELLS/uL
ABSOLUTE SEGMENTED NEUTROPHIL [4]: 1055.67 CELLS/uL
BASOPHIL [4]: 0%
EOSINOPHIL [4]: 1%
ERYTHROCYTE COUNT [4]: 5.65 x10E6/uL
HEMATOCRIT [4]: 34.67%
HEMOGLOBIN [4]: 13 G/DL
LEUKOCYTE COUNT [4]: 13.13 x10E3/uL
LYMPHOCYTE [4]: 89.67%
MEAN CORPUSCULAR HEMOGLOBIN [4]: 22.97 pg
MEAN CORPUSCULAR HEMOGLOBIN CONCENTRATION [4]: 37.5 G/DL
MEAN CORPUSCULAR VOLUME [4]: 61.37 fL
MONOCYTE [4]: 1.33%
NEUTROPHIL [4]: 8%
NUCLEATED RED BLOOD CELLS [4]: 0 /100WBC
PLATELET COUNT [4]: 1220 x10E3/uL
ALANINE AMINOTRANSFERASE [4]: 47.67 u/L
ALBUMIN [4]: 4.2 G/DL
ALKALINE PHOSPHATASE [4]: 278 u/L
ASPARTATE AMINOTRANSFERASE [4]: 83.67 u/L
BLOOD UREA NITROGEN [4]: 18.33 mg/dL
CARBON DIOXIDE [4]: 25.67 mmol/L
CHLORIDE [4]: 106.67 MEQ/L
CHOLESTEROL [4]: 68.33 mg/dL
CREATINE PHOSPHOKINASE [4]: 322.33 u/L
CREATININE [4]: 0.19 mg/dL
GLUCOSE [4]: 144.33 mg/dL
LACTATE DEHYDROGENASE [4]: 436.33 u/L
LIPASE [4]: 8.67 u/L
PHOSPHORUS [4]: 11.6 mg/dL
POTASSIUM [4]: 6.06 MEQ/L
SODIUM [4]: 146.23 MEQ/L
TOTAL BILIRUBIN [4]: 0.2 mg/dL
TOTAL PROTEIN [4]: 5.9 G/DL
URIC ACID [4]: 1.03 mg/dL
